Results reported in article PMC6580635, “Neuropilin-1 drives tumor-specific uptake of chlorotoxin” (Cell Communication and Signaling : CCS, 2019).
Peptide text beside a SMILES is read from it. * marks the point of attachment. Biotin = O=C1N[C@H]2[C@H](CS[C@H]2CCCCC(=O)*)N1; Cam = NC(=O)C*

Assays:
NRP1 [1] = biological target: T1, NRP1 (Homo sapiens, UniProt O14786); experiment: Bio-layer interferometry (Octet) binding of Cltx and derived peptides to NRP1; settings: BLI; biotinylated peptides on streptavidin biosensors, NRP1 0 to 1750 nM; mean of 2 to 6 independent experiments; ns = no significant binding
T1 construct: purchased Sino Biological Inc. 10011-H02H
T1 sequence (O14786 22-644 isoform O14786-2 limits assumed): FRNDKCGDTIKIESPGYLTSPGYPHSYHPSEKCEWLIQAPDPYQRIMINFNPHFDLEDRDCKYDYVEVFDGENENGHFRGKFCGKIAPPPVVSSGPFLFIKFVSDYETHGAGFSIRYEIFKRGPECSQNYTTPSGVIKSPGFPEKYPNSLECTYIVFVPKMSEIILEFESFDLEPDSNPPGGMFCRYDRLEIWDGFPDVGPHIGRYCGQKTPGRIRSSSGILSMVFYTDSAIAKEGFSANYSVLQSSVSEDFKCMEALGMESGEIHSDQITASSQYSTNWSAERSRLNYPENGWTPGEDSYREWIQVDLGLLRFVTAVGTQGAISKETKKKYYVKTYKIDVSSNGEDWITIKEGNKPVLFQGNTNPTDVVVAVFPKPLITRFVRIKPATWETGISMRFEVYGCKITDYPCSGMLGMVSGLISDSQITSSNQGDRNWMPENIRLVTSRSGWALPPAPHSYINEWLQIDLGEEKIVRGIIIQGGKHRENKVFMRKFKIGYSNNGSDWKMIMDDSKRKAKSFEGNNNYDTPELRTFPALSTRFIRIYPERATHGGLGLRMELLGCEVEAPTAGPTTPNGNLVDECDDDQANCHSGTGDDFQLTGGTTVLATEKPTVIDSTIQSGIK
Method: Octet binding studies required biotinylation of Cltx and derived peptides for loading onto streptavidin biosensors. Trypsin, (Promega Cat# V5280) (~ 40 μg/mL) was added to Cltx biotinylated at K27 or N-terminus (10 mg/mL) and incubated for 24 h at 37 °C, pH 8.5. The resulting peptides were separated by preparative HPLC and peptide fragments were characterized by MALDI. Small linear Cltx-derived peptides were also synthesized by routine methods and were biotinylated at the N-terminus. In some cases, peptides were reduced with TCEP at pH 8 and the cysteine residues were capped using iodoacetamide.
Assessment of binding between NRP1and Cltx was performed by Bio-Layer Interferometry (BLI) using the Octet Red96 System (ForteBio, Pall). Cltx and derived fragments were captured on streptavidin biosensors (Cat# 18–5020) under approximately equivalent loading conditions; sensors were then quenched with EZ-Link Biocytin and washed in assay buffer (PBS, 1% BSA, 0.05% Tween20).

NRP1 [2] = biological target: T1, NRP1; experiment: BLI competition with biotinylated VEGF165 for binding to NRP1; settings: NRP1 fixed at 390 nM, Cltx peptide 50 to 800 μmol/L
crayfish = experiment: Crayfish bioassay (neurotoxicity, paralysis); assay type: in vivo; settings: 20 µg per injection, n=8 crayfish; Kaplan-Meier analysis
Method: The crayfish assay to determine bioactivity of Cltx was performed at ABC Labs (Columbia, MO, now EAG Labs) using an SOP generated by TransMolecular Inc. Cltx peptide (20 μg) in sterile water was injected through the ventral surface of the thorax in the region of the sub-esophageal ganglion of crayfish which were then subjected to physical challenge defined as multiple, continuous, gentle prods in random parts of the body from head to tail. The animal’s response is based on avoidance, ability to right itself, and clasping with chelae in a defensive manner. Time from injection to total incapacitation was recorded; total incapacitation is defined as the time when the tested crayfish is not responsive when physically challenged.

Neuropilin-1 (NRP1) = biological target: T2, Neuropilin-1 (NRP1) (UniProt O14786 22-856); experiment: BLI; affinity of NRP1 for VEGF given beside the peptides of Table 1; set-up for VEGF not told separately; settings: both partners purified
T2 construct: The R&D Systems NRP1 Phe22-Lys644 (Cat# 3870-N1) was only a control in Western blots
T2 sequence (looked up): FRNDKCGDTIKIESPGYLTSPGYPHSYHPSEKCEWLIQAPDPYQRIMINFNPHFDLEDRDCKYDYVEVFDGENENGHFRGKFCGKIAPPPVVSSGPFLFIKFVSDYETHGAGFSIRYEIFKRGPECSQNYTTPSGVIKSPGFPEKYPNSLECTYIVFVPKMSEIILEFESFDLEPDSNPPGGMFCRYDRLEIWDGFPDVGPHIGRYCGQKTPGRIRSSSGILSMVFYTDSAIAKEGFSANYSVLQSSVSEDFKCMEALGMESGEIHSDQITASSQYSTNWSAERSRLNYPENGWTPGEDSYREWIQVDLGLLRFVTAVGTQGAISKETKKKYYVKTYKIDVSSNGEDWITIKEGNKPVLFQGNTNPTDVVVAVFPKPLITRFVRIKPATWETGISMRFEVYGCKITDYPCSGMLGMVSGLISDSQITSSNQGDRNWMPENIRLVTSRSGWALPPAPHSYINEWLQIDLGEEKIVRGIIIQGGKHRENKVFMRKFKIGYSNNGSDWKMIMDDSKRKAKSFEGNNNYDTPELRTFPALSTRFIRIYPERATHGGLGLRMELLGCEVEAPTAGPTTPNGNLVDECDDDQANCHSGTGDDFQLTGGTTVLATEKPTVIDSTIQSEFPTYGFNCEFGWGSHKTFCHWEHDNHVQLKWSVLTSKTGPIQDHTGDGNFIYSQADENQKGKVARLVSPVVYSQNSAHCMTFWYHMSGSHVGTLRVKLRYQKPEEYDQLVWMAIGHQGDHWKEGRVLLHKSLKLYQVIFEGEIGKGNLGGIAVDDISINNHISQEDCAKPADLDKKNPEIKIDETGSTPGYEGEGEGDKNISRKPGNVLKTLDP

CSCC[C@H](NC(=O)CCCC[C@@H]1SC[C@@H]2NC(=O)N[C@@H]21)C(=O)N[C@H]1CSSC[C@@H](C(=O)N[C@@H](Cc2ccccc2)C(=O)N[C@H](C(=O)N[C@H](C(=O)N[C@@H](CC(=O)O)C(=O)N[C@@H](Cc2c[nH]cn2)C(=O)N[C@@H](CCC(N)=O)C(=O)N[C@@H](CCSC)C(=O)N[C@@H](C)C(=O)N[C@@H](CCCNC(=N)N)C(=O)O)[C@@H](C)O)[C@@H](C)O)NC(=O)[C@@H]2CCCN2C(=O)[C@H](CCSC)NC1=O [C00003]
Kd (NRP1 [1]): 167 nM

CC(C)C[C@H](NC(=O)[C@H](CSCC(N)=O)NC(=O)[C@H](CCC(N)=O)NC(=O)[C@@H]1CCCN1C(=O)CNC(=O)[C@H](Cc1ccc(O)cc1)NC(=O)CCCC[C@@H]1SC[C@@H]2NC(=O)N[C@@H]21)C(=O)N[C@@H](CSCC(N)=O)C(=O)N[C@@H](CCCNC(=N)N)C(=O)O [C00008] (Biotin-YGPQC(Cam)LC(Cam)R-OH)
Kd (NRP1 [1]): 297 nM

CC(C)C[C@H](NC(=O)[C@H](CSCC(N)=O)NC(=O)CCCC[C@@H]1SC[C@@H]2NC(=O)N[C@@H]21)C(=O)N[C@@H](CSCC(N)=O)C(=O)N[C@@H](CCCNC(=N)N)C(=O)O [C00011] (Biotin-C(Cam)LC(Cam)R-OH)
Kd (NRP1 [1]): 335 nM

Chlorotoxin [Cltx-CONH2]
Competition with biotinylated VEGF for binding to NRP1 (NRP1 [2]): not | Median time to paralysis (total incapacitation) (crayfish): 25 s

B1: Biotinylated VEGF165 (ligand)
chain: APMAEGGGQNHHEVVKFMDVYQRSYCHPIETLVDIFQEYPDEIEYIFKPSCVPLMRCGGCCNDEGLECVPTEESNITMQIMRIKPHQGQHIGEMSFLQHNKCECRPKKDRARQENPCGPCSERRKHLFVQDPQTCKCSCKNTDSRCKARQLELNERTCRCDKPRR
modifications: biotin
Kd (Neuropilin-1 (NRP1)): ~50 nM
